Data published in patent US20250353873A1, “COMPOUNDS AND METHODS FOR MODULATING APOE EXPRESSION” (Ionis Pharmaceuticals, Inc., priority 2024, published 2025).
Strand notation (5' to 3'): a small letter for the sugar, then the base; units joined by * are phosphorothioate-linked, units joined directly phosphodiester-linked; [ ] holds rarer units or linkages, { } end groups; capitals alone tell only the bases. [ms] = mesyl phosphoramidate linkage; e = 2'-O-(2-methoxyethyl) (MOE); k = constrained ethyl (cEt); [5mC] = 5-methylcytosine; d = 2'-deoxy (DNA)

Key:
human APOE RNA [1] = experiment: Dose-dependent reduction of human APOE RNA in HepG2 cells, electroporation, 20,000 cells per well, normalized to PPIA (Example 4, Table 11); assay type: cell-based; details: HepG2 cells, 20,000 cells per well, approximately 24 hours
Experimental: HepG2 cells plated at a density of 20,000 cells per well were treated by electroporation with various concentrations of modified oligonucleotide as specified in the tables below. […] APOE RNA levels were measured using the human primer probe set RTS3073 (described herein above). APOE RNA levels were normalized to human PPIA. Human PPIA was amplified using human primer probe set mk_cycloA_2nd (forward sequence […], designated herein as SEQ ID NO: 13; reverse sequence […], designated herein as SEQ ID NO: 14; probe sequence […], designated herein as SEQ ID NO: 15). Normalized results are presented in the table below as percent APOE RNA, relative to the amount of APOE RNA in untreated control cells (% UTC). The half maximal inhibitory concentration (IC50) of each modified oligonucleotide was calculated in GraphPad Prism 10 (GraphPad Software, San Diego, CA) and is also presented in the table below.

human APOE RNA [2] = experiment: Potency (dose response, ED50) in APOE C57BL/6NTac-Apoeem7250 knock-in mice, 8 weeks (Example 15); assay type: in vivo
Experimental: Modified oligonucleotides described above were tested in the APOE C57BL/6NTac-Apoeem7250 knock-in mouse model described above.
APOE C57BL/6NTac-Apoeem7250 knock-in mice were divided into groups of 3-4 mice each. A group of 4 mice received a single ICV bolus with PBS as a negative control.
Eight weeks post treatment, mice were sacrificed, and RNA was extracted from cortical brain tissue and spinal cord for quantitative real-time RT-PCR analysis of RNA expression of […] using human primer probe set RTS3073 (described herein above). APOE RNA levels were normalized to mouse Ppia. Mouse Ppia was amplified using primer probe set m_cyclo24 (described herein above). Results are presented as percent human APOE RNA relative to the amount of APOE RNA in PBS treated animals, (% control). N.C. indicates values that were not calculated.
The half maximal effective dose (ED50) of each modified oligonucleotide was calculated using GraphPad Prism 10 software (GraphPad Software, San Diego, CA).

human APOE RNA [3] = experiment: Duration of action study in APOE C57BL/6NTac-Apoeem7250 knock-in mice (Example 16); assay type: in vivo; details: 300 μg ICV
Method in brief: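 Knock-in mice (2-4 per group) received a single ICV bolus of 300 μg oligonucleotide or PBS. At various timepoints, cortex and spinal cord human APOE RNA was measured by RT-qPCR (RTS3073), normalized to mouse Ppia and expressed as % of PBS control.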

human APOE RNA [4] = experiment: Dose-dependent inhibition of human APOE RNA in HepG2 cells, electroporation, 50,000 cells per well, RT-PCR normalized to GAPDH (Example 4, Tables 8-10); assay type: cell-based; details: HepG2 cells, electroporation, Table 8
Method in brief: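 Readout is percent APOE RNA versus untreated controls, measured by RT-PCR (primer probe set RTS3073) and normalized to human GAPDH. Modified oligonucleotides were delivered by electroporation at varying doses into HepG2 cells plated at 50,000 per well.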

[5] = single ICV bolus, GraphPad Prism 10

Aks^mCeoTeoTesGesGksTdsGdzAdzAdzTds^mCdsTdsTdsTdsAdzTksTksAesAe (kA*e[5mC]eTeT*eG*kG*dT*dG[ms]dA[ms]dA[ms]dT*d[5mC]*dT*dT*dT*dA[ms]kT*kT*eA*eA) [Compound No. 1809635]
APOE RNA (% UTC) 5 nM (human APOE RNA [1]; PPIA-normalized, 5 nM): 105 % UTC | APOE RNA (% UTC) 13 nM (human APOE RNA [1]; PPIA-normalized, 13 nM): 87 % UTC | APOE RNA (% UTC) 33 nM (human APOE RNA [1]; PPIA-normalized, 33 nM): 78 % UTC | APOE RNA (% UTC) 82 nM (human APOE RNA [1]; PPIA-normalized, 82 nM): 66 % UTC | APOE RNA (% UTC) 205 nM (human APOE RNA [1]; PPIA-normalized, 205 nM): 55 % UTC | APOE RNA (% UTC) 512 nM (human APOE RNA [1]; PPIA-normalized, 512 nM): 31 % UTC | APOE RNA (% UTC) 1,280 nM (human APOE RNA [1]; PPIA-normalized, 1,280 nM): 18 % UTC | APOE RNA (% UTC) 3,200 nM (human APOE RNA [1]; PPIA-normalized, 3,200 nM): 16 % UTC | APOE RNA (% UTC) 8,000 nM (human APOE RNA [1]; PPIA-normalized, 8,000 nM): 4 % UTC | APOE RNA (% UTC) 20,000 nM (human APOE RNA [1]; PPIA-normalized, 20,000 nM): 2 % UTC | IC50 (human APOE RNA [1]; reduction of human APOE RNA, PPIA-normalized): 210 nM | APOE RNA (% control) Cortex (human APOE RNA [2]; ICV dose 10 μg): 95 % control | APOE RNA (% control) Cortex (human APOE RNA [2]; ICV dose 30 μg): 84 % control | APOE RNA (% control) Cortex (human APOE RNA [2]; ICV dose 100 μg): 62 % control | APOE RNA (% control) Cortex (human APOE RNA [2]; ICV dose 300 μg): 30 % control | APOE RNA (% control) Cortex (human APOE RNA [2]; ICV dose 700 μg): 16 % control | ED 50 (μg) Cortex (human APOE RNA [2]; [5]): 146.7 µg | APOE RNA (% control) Spinal Cord (human APOE RNA [2]; spinal cord, ICV dose 10 μg): 51 % control | APOE RNA (% control) Spinal Cord (human APOE RNA [2]; spinal cord, ICV dose 30 μg): 27 % control | APOE RNA (% control) Spinal Cord (human APOE RNA [2]; spinal cord, ICV dose 100 μg): 13 % control | APOE RNA (% control) Spinal Cord (human APOE RNA [2]; spinal cord, ICV dose 300 μg): 13 % control | APOE RNA (% control) Spinal Cord (human APOE RNA [2]; spinal cord, ICV dose 700 μg): 18 % control | APOE RNA (% control) Cortex (human APOE RNA [3]; 7 days post-dose): 40 % control | APOE RNA (% control) Cortex (human APOE RNA [3]; 14 days post-dose): 30 % control | APOE RNA (% control) Spinal Cord (human APOE RNA [3]; 7 days post-dose): 44 % control | APOE RNA (% control) Spinal Cord (human APOE RNA [3]; 14 days post-dose): 27 % control

1785599: modified oligonucleotide complementary to human APOE RNA (k[5mC]*kT*kT*dG[ms]dG[ms]dT[ms]dG[ms]dA[ms]dA[ms]dT[ms]d[5mC]*dT*dT*dT*dA*dT*kT*kA*dA[ms]kA; antisense) [compound 1785599]
APOE RNA (% UTC) 5 nM (human APOE RNA [4]; 24-hour treatment, 5 nM): 116 % UTC | APOE RNA (% UTC) 13 nM (human APOE RNA [4]; 24-hour treatment, 13 nM): 116 % UTC | APOE RNA (% UTC) 33 nM (human APOE RNA [4]; 24-hour treatment, 33 nM): 100 % UTC | APOE RNA (% UTC) 82 nM (human APOE RNA [4]; 24-hour treatment, 82 nM): 87 % UTC | APOE RNA (% UTC) 205 nM (human APOE RNA [4]; 24-hour treatment, 205 nM): 65 % UTC | APOE RNA (% UTC) 512 nM (human APOE RNA [4]; 24-hour treatment, 512 nM): 48 % UTC | APOE RNA (% UTC) 1,280 nM (human APOE RNA [4]; 24-hour treatment, 1,280 nM): 43 % UTC | APOE RNA (% UTC) 3,200 nM (human APOE RNA [4]; 24-hour treatment, 3,200 nM): 21 % UTC | APOE RNA (% UTC) 8,000 nM (human APOE RNA [4]; 24-hour treatment, 8,000 nM): 9 % UTC | APOE RNA (% UTC) 20,000 nM (human APOE RNA [4]; 24-hour treatment, 20,000 nM): 2 % UTC | IC50 (human APOE RNA [4]; reduction of human APOE RNA, 24-hour treatment): 640 nM | APOE RNA (% control) Cortex (human APOE RNA [2]; ICV dose 10 μg): 94 % control | APOE RNA (% control) Cortex (human APOE RNA [2]; ICV dose 30 μg): 72 % control | APOE RNA (% control) Cortex (human APOE RNA [2]; ICV dose 100 μg): 56 % control | APOE RNA (% control) Cortex (human APOE RNA [2]; ICV dose 300 μg): 37 % control | APOE RNA (% control) Cortex (human APOE RNA [2]; ICV dose 700 μg): 25 % control | ED 50 (μg) Cortex (human APOE RNA [2]; [5]): 143.3 µg | APOE RNA (% control) Spinal Cord (human APOE RNA [2]; spinal cord, ICV dose 10 μg): 54 % control | APOE RNA (% control) Spinal Cord (human APOE RNA [2]; spinal cord, ICV dose 30 μg): 38 % control | APOE RNA (% control) Spinal Cord (human APOE RNA [2]; spinal cord, ICV dose 100 μg): 16 % control | APOE RNA (% control) Spinal Cord (human APOE RNA [2]; spinal cord, ICV dose 300 μg): 13 % control | APOE RNA (% control) Spinal Cord (human APOE RNA [2]; spinal cord, ICV dose 700 μg): 12 % control | ED 50 (μg) Spinal Cord (human APOE RNA [2]; spinal cord, single ICV bolus, GraphPad Prism 10): 12.18 µg
